Measured values as given in a melting point compilation (Tetko et al.; mined from patent text by program, amines drawn as free bases though some values may be those of a salt).

Compound	melting point [°C]
O=C(Cn1c(-c2ccc3c(c2)OCO3)nc2ccccc21)c1ccccc1	186 to 189
Cc1cc([N+](=O)[O-])cc(C)c1Oc1ccc(O)c(C(=O)c2ccc(F)cc2)c1	148 to 150
CN(C)c1n[nH]c(-c2ccc(F)cc2)c1-c1ccncc1	245 to 247
Cc1cc2ccc(Cl)cc2[nH]1	120 to 122
O=C(O)CCC(NC(=O)C=Cc1ccco1)C(=O)O (stereo not given)	166 to 170
COc1cc2nc(N)nc(-c3ccccc3OC(F)(F)F)c2cc1OC	235 to 237
O=C(Nc1ccccc1N1CCc2ccccc21)C1CC1	83 to 85
Cc1cc(O)ccc1-c1ccc(N)cc1	156 to 157
CN1C(=O)C(Cc2ccccc2)Oc2ccc(N)cc21 (stereo not given)	82 to 85
Cc1cn(-c2cccc(C3=Nc4ccc(-c5ccc(F)cc5)cc4NC(=O)C3)c2)c(C)n1	188
CC1CCN(c2nccc(Oc3ccc(NC(=O)c4cc(F)cc(N5CCOCC5)c4)c4ccccc34)n2)CC1	117 to 118
O=C1Cc2cc(OCc3ccc4ccccc4n3)ccc2N1c1ccccc1	148 to 149
CC(CN1CCC(NC(=O)C2CC2)CC1)c1ccc(C(=O)c2ccccc2)cc1 (stereo not given)	159 to 160
O=[N+]([O-])c1ccc(CN2CCc3ccccc32)cc1	95 to 97
NC(Cc1cc(O)c2c(c1)C(=O)c1cccc(O)c1C2=O)C(=O)O (stereo not given)	210 to 212
FC(F)(F)c1cc(-c2nnn[nH]2)cc(C(F)(F)F)c1	179
Oc1cccc(Sc2ncccc2O)c1	147 to 148
COc1ccc(-c2csc(Nc3cc(OC)ccc3OC)n2)cc1	104
O=[N+]([O-])c1ccc(Oc2ccc(O)cc2)cc1	173 to 174
c1ccc(-c2c3ccccc3nc3ccccc23)nc1	192 to 205
Nc1ccc2c(c1)CC(N1CCN(CCN3CCOC3=O)CC1)c1ccccc1S2 (stereo not given)	193 to 196
NC(=O)COc1ccc(CCN2CCC(Nc3nc4ccccc4n3Cc3ccc(F)cc3)CC2)cc1	180
O=S(=O)(c1ccccc1)n1c(C(O)c2ccoc2)cc2ccncc21 (stereo not given)	168 to 171
COc1cc2c(cc1Nc1ncc(Cl)c(Nc3ccc(C(N)=O)cc3OC)n1)CCN(CC(=O)N(C)C)CC2	113 to 131
O=C1N(Cc2ccccn2)c2c(F)cccc2C12COc1cc3c(cc12)OCCO3 (stereo not given)	205 to 207
NC(=O)CNC(=O)c1cc(Cl)nc(Cl)c1	211 to 213
O=C(O)c1cn(-n2cnnc2)c2nc(Cl)c(F)cc2c1=O	230
Cc1cccc(-c2[nH]c(C(C)C)nc2-c2ccc(F)c(-c3c[nH]c(C)n3)c2)n1	230 to 234

Compound	melting point [°C]
O=C(N[C@H](Cc1cccc(OC(F)(F)C(F)F)c1)[C@@H](O)c1ccc(Oc2ccccc2)cc1)c1cccc2c1C=CCCC2 (racemic)	95 to 96
CC(=O)NS(=O)(=O)c1cccc(N)c1	148 to 150
Cc1cc(C)c(N2CCCc3c2nn(C)c3-c2ccccc2C(F)(F)F)c(C)c1	59 to 63
Cc1c(C2CCC(c3ccccc3)(N(C)C)CC2)[nH]c2ccc(C(F)(F)F)cc12 (stereo not given)	204 to 217
CNc1ccc(N)cc1[N+](=O)[O-]	115 to 116
Clc1cc(Cl)n2nc(SCc3ccccc3)nc2n1	97 to 100
C(=Cc1ccc(-c2ccccc2)cc1)c1ccccc1	224
COc1ccccc1N1CCN(Cc2c(C3CC3)nn(-c3ccccc3)c2N)CC1	70 to 74
O=C1CC(SSSSC2CC(=O)NC2=O)C(=O)N1 (stereo not given)	108 to 114
COc1ccc(C(=O)c2sc3cc(OC)ccc3c2-c2ccccc2)cc1	127 to 128
O=C(Nc1ccccc1C(=O)NCc1ccccc1)N[C@@H](Cc1ccc(NC(=O)c2c(Cl)cccc2Cl)cc1)C(=O)O	165
O=C(O)C(Nc1ccc2ccccc2c1)c1c(Cl)cccc1Cl (stereo not given)	94.5
Cc1cnc(-c2ccc(O)cc2)o1	177 to 178
N=C(NS(=O)(=O)C=Cc1ccc([N+](=O)[O-])cc1)c1ccc2ccccc2c1	180 to 182
CC(=O)Nc1ccc(-c2cc(C(=O)c3ccc(Cl)cc3Cl)sc2N2CCOCC2)cc1	145
CC=C(C)C1CCC2C3CCC4=CC(=O)CCC4(C)C3CCC12C (stereo not given)	157 to 165
N#Cc1nn(-c2c(Cl)cc(C(F)(F)F)cc2Cl)cc1-c1ccoc1	139
CC(=O)OCC1CCc2cc3ccccc3n2CC1 (stereo not given)	77 to 79
O=c1ccn(-c2cccc(F)c2)nc1-c1ccnn1-c1ccccc1	170 to 171
N=C(c1ccccc1)C1CCN1C(c1ccccc1)c1ccccc1 (stereo not given)	124 to 126
COc1cc2c(c3c1OC(C)(C)C3)C(c1cccc(-c3ccc(NC(=O)CNC(C)=O)cc3)c1)=NC(C)(C)C2	218 to 221
Cc1cc(C)n(C(=O)C(NS(=O)(=O)c2ccc(Cl)cc2)c2ccccc2)n1 (stereo not given)	160
CN1CC=C(c2c[nH]c3ccc(NS(C)(=O)=O)cc23)CC1	210 to 214
CC(ON1C(C)(C)CC2(CC1(C)C)OCC(C)(C)CO2)c1ccc(O)cc1 (stereo not given)	133 to 134
Clc1ccc(C(Cl)Cl)c(C(Cl)Cl)c1	63 to 64
O=C(CCl)N[C@@H]1CCCC[C@H]1NC(=O)CCl (relative stereo)	202 to 203
CC1Nc2cc(NC(=O)c3ccc(-c4ccccc4)cc3)ccc2N1C (stereo not given)	272 to 274

Continued, values first:

melting point [°C]	Compound
187 to 189	COc1cc2cc(C(=O)O)[nH]c2cc1OCCCl
194 to 195	CCN1CCCC1CNS(=O)(=O)c1ccc(Nc2ccnc3cc(C(F)(F)F)ccc23)cc1 (stereo not given)
127 to 128	Cc1cc(C)c(-c2cn(C)c3nc(N(C)C)n(C)c(=O)c23)c(C)c1
247	CCCCOc1nc(N)c2[nH]c(=O)n(CCCNc3cccc(CC(=O)O)c3)c2n1
290	CC1(C)CCC(C)(C)c2cc3oc(-c4ccc(C(=O)O)cc4)nc3cc21
> 260	Cc1ccc(NC(=O)NCc2cccc3c2CN(C2CCC(=O)NC2=O)C3=O)cc1C (stereo not given)
167	O=C(O)CCCCCn1c2ccccc2c(=O)c2ccccc21
191 to 192	N#CCCNc1nonc1-c1nc2ccccc2n1CC(=O)c1ccc(Cl)cc1
121 to 123	CN(C)c1ccc(C(=O)CCCCC2CCN(Cc3ccccc3)CC2)cc1
208 to 209	COC(=O)c1cc(C(=O)NNC(C)=O)c2cc(Cc3ccc(F)cc3)cnc2c1O
200 to 202	COc1cc(-c2cc(O)n(C)n2)cc([N+](=O)[O-])c1OC
106 to 108	Cc1cc(O)c(SCC(C)C)c(=O)o1
270 to 273	CCCOc1ccc(-c2ccc3c(c2)C=C(C(=O)O)CCS3(=O)=O)cc1
109 to 110	CCCCCCCC/C(=C\C=C\C(=O)O)c1ccc(OC)cc1
102	CCCCCCCCCc1c(C(F)(F)F)noc1NS(=O)(=O)c1ccccc1
56 to 57	CCCCOc1c(NC(C)(C)CC)c(=O)c1=O
186	COc1ccc(Cn2c(=O)c(Cl)nc3ccc4ccccc4c32)c(OC)c1
79	CCCCSc1ccc(C2CC(=O)C(C(=O)CC)=C(O)C2)cc1 (stereo not given)
168 to 170	NS(=O)(=O)c1ccc(S(=O)(=O)CCCO)c([N+](=O)[O-])c1
81 to 82	COc1cccc2cc(CNCCNC(=O)C(C)(C)C)oc12
131 to 133	CC(C)(C)OC(=O)N1CC(CCl)c2c1ccc1ccc(S(=O)(=O)N(Cc3ccccc3)Cc3ccccc3)cc21 (stereo not given)
212 to 214	CN(C)CCSc1sc(-c2cc[nH]n2)c2c1C(=O)CC(C)(C)C2
175 to 176	CCOC(=O)C(=O)CC(=O)c1cn(Cc2ccc([N+](=O)[O-])cc2)c2ccccc2c1=O

melting point [°C]	Compound
248 to 249	COc1cc(N2CCOCC2)ccc1Nc1nc(Nc2ccc3c(c2OC)CCCC(=O)N3)ncc1Cl
137 to 138	COc1nccc2c1C(c1ccccc1C(F)(F)F)C(C(=O)OCCN(C)C)=C(C)N2 (stereo not given)
133 to 134	CCCN1CC(CSC)=C[C@H]2Cc3n[nH]cc3C[C@@H]21 (relative stereo)
> 280	Cc1ccc(-c2[nH]nc3c2C(=O)c2c(NC(N)=O)cccc2-3)s1
149 to 150	CC(=O)OCC(=O)NCc1ccc(-c2csc(N)n2)s1
142 to 146	CSc1ccc(-c2c(C(F)(F)F)n(C)[nH]c2=O)cc1
202 to 204	COc1ccc(-c2coc3cc(OC)cc(OC)c3c2=O)c(OC)c1
138	CCC(=O)OC1(C(=O)COC(C)=O)CCC2C3CC(C)C4=CC(=O)C=CC4(C)C3C(O)CC21C (stereo not given)
198 to 200	COc1c(N2CCC(CN)C2)c(F)cc2c(=O)c(C(=O)O)cn(C3CC3)c12 (stereo not given)
228 to 230	Cn1cc(Br)nc(Nc2cnn(C3CC3)c2)c1=O
98 to 99.5	CC1(O[Si](C)(C)C(C)(C)C)CN(c2ccc([N+](=O)[O-])cc2F)C1
170 to 171	COc1ccc(Oc2cnc(N)nc2N)c(C(C)C)c1
158 to 160	CCCCCCOc1c(OC)cc(C(=O)NN=C2CCCCC2=Cc2ccccc2)cc1OC
52 to 53.5	CCCCOCn1c(-c2ccc(Cl)cc2)c(C#N)c(Br)c1C(F)(F)F
161 to 162	O=C(CCl)Nc1ccc2c(c1NC(=O)CSc1ccccc1)C(=O)c1ccccc1C2=O
115 to 117	CSc1cc(C)cc(C)c1C=NO
38	CC(C)C(C)(C)N1N=C([O-])O[NH2+]1
103 to 106	CCN(CC)C(=O)n1ccc(S(=O)(=O)c2cc(Cl)cc(Cl)c2)n1
85 to 86	CCOc1nn(-c2ccc(C(F)(F)F)cn2)cc1CCCO
202 to 205	CN1C(=O)N(C)C(Cc2c[nH]c3ccccc23)C1CCc1cc(C(F)(F)F)cc(C(F)(F)F)c1 (stereo not given)
196 to 198	C#CCn1c(-c2ccccc2)nc(CC)c(CC(N)=O)c1=O
> 300	Nc1c(F)c(F)cc2c1c(=O)c(C(=O)O)cn2C1CC1
